Results from BindingDB's records for doi:10.1016/j.bmc.2012.08.058 (Purdue University, 2012).

Columns and labels:
[1] = molecular target: T1, D(3) dopamine receptor (Homo sapiens, UniProt P35462); assay: Displacement of [3H]-N-methylspiperone from human dopamine D3 receptor expressed in HEK293 cells after 30 mins by scintillation counting
[2] = molecular target: D(2) dopamine receptor (Homo sapiens, UniProt P14416); assay: Displacement of [3H]-N-methylspiperone from human dopamine D2long receptor expressed in HEK293 cells after 30 mins by scintillation counting
Sequence of D(2) dopamine receptor (P14416 whole entry): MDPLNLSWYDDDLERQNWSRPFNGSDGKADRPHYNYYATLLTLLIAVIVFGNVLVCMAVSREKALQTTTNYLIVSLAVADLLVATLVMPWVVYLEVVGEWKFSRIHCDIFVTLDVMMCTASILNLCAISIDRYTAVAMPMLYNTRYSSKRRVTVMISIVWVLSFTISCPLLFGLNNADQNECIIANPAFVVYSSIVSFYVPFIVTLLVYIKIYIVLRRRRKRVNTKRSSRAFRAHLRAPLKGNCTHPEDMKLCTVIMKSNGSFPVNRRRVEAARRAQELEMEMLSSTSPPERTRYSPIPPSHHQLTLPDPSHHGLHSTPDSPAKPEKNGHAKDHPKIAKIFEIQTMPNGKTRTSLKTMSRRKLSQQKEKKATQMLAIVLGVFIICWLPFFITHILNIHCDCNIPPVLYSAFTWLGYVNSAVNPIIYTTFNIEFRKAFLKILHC

[3] = molecular target: T1, D(3) dopamine receptor; assay: Agonist activity at dopamine D3 receptor in human U2OS-D3 cells assessed as EA-tagged beta-arrestin translocation after 1.5 hrs by luminescence based beta-galactosidase assay

T1 sequence (P35462 as listed by the source): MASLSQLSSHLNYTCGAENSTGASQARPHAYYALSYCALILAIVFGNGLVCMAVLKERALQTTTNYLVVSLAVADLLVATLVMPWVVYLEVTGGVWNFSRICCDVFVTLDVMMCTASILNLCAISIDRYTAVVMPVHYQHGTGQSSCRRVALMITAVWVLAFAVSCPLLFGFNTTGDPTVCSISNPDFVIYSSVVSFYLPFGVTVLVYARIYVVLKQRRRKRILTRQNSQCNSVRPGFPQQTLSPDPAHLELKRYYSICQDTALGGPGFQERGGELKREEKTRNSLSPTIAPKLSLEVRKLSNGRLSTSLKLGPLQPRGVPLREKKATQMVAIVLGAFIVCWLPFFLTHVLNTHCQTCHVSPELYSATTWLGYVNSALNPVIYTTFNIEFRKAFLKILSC

CCCN1C[C@H](c2ccc(O)cc2)C[C@@H]2c3cc(O)c(O)cc3CC[C@H]21
Ki [1]: 1.1 nM
Ki [2]: 160 nM
EC50 [3]: 46 nM
